Active and inactive are the calls of the source. The calls are words filed in the database; no cut-off is given here.

Results on three molecules are retold here after ChEMBL document CHEMBL5390237, “Discovery of Selective Histone Deacetylase 1 and 2 Inhibitors: Screening of a Focused Library Constructed by Click Chemistry, Kinetic Binding Analysis, and Biological Evaluation” (J Med Chem, 2023).

Sequence of Histone deacetylase 9 (Homo sapiens) (Q9UKV0 whole entry): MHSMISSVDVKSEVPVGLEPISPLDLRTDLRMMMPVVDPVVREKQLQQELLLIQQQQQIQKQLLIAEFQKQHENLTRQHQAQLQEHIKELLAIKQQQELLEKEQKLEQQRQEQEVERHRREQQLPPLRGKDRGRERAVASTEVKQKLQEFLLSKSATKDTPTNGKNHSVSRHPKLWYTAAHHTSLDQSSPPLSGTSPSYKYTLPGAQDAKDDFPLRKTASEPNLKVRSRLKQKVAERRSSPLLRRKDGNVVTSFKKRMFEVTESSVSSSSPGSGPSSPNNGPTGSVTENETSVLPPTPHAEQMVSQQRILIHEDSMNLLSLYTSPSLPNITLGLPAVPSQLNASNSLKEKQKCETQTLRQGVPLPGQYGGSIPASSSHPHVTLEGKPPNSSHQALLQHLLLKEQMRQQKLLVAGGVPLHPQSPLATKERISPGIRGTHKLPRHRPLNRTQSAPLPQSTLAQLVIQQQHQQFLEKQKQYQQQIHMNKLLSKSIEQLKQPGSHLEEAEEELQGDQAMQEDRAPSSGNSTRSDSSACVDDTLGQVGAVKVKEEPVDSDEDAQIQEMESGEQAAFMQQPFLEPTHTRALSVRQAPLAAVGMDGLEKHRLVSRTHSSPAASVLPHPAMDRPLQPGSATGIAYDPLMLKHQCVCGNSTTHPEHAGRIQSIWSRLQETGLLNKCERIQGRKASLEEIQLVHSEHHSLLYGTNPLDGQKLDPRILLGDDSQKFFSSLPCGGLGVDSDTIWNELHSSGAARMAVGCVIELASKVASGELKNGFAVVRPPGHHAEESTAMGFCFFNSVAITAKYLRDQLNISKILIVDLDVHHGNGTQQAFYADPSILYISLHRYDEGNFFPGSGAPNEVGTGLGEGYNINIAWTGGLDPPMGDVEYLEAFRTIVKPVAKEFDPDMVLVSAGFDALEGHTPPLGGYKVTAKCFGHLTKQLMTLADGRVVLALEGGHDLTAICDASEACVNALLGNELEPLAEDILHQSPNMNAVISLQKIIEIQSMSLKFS
Sequence of Histone deacetylase 1 (Q13547 whole entry): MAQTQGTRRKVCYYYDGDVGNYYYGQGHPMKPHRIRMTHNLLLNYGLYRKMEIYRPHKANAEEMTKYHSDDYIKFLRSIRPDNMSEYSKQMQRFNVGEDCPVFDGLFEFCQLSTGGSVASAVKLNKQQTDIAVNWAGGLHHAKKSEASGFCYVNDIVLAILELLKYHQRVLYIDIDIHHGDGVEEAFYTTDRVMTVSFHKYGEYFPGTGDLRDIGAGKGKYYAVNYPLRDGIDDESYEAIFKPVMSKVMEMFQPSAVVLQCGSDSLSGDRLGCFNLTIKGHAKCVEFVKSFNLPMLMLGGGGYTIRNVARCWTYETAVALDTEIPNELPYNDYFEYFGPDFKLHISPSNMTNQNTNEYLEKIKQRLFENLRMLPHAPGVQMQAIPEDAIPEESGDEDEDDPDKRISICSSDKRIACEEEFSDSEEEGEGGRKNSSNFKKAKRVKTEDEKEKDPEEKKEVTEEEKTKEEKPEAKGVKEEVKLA
Sequence of Histone deacetylase 3/NCoR1 (O15379 whole entry, the tested form may be a part): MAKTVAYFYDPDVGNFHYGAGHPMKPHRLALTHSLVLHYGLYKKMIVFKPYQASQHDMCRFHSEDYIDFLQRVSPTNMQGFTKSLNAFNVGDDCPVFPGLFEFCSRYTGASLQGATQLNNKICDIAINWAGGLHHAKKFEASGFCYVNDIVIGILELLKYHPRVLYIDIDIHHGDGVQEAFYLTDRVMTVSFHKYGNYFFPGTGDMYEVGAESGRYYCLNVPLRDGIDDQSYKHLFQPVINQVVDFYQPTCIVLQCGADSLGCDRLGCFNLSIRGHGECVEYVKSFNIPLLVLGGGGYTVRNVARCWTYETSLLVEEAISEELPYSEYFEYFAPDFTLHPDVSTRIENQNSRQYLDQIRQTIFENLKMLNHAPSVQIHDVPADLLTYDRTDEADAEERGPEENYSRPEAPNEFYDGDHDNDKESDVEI
Sequence of Histone deacetylase 3/NCoR1 (O75376 whole entry, further chain, the tested form may be a part): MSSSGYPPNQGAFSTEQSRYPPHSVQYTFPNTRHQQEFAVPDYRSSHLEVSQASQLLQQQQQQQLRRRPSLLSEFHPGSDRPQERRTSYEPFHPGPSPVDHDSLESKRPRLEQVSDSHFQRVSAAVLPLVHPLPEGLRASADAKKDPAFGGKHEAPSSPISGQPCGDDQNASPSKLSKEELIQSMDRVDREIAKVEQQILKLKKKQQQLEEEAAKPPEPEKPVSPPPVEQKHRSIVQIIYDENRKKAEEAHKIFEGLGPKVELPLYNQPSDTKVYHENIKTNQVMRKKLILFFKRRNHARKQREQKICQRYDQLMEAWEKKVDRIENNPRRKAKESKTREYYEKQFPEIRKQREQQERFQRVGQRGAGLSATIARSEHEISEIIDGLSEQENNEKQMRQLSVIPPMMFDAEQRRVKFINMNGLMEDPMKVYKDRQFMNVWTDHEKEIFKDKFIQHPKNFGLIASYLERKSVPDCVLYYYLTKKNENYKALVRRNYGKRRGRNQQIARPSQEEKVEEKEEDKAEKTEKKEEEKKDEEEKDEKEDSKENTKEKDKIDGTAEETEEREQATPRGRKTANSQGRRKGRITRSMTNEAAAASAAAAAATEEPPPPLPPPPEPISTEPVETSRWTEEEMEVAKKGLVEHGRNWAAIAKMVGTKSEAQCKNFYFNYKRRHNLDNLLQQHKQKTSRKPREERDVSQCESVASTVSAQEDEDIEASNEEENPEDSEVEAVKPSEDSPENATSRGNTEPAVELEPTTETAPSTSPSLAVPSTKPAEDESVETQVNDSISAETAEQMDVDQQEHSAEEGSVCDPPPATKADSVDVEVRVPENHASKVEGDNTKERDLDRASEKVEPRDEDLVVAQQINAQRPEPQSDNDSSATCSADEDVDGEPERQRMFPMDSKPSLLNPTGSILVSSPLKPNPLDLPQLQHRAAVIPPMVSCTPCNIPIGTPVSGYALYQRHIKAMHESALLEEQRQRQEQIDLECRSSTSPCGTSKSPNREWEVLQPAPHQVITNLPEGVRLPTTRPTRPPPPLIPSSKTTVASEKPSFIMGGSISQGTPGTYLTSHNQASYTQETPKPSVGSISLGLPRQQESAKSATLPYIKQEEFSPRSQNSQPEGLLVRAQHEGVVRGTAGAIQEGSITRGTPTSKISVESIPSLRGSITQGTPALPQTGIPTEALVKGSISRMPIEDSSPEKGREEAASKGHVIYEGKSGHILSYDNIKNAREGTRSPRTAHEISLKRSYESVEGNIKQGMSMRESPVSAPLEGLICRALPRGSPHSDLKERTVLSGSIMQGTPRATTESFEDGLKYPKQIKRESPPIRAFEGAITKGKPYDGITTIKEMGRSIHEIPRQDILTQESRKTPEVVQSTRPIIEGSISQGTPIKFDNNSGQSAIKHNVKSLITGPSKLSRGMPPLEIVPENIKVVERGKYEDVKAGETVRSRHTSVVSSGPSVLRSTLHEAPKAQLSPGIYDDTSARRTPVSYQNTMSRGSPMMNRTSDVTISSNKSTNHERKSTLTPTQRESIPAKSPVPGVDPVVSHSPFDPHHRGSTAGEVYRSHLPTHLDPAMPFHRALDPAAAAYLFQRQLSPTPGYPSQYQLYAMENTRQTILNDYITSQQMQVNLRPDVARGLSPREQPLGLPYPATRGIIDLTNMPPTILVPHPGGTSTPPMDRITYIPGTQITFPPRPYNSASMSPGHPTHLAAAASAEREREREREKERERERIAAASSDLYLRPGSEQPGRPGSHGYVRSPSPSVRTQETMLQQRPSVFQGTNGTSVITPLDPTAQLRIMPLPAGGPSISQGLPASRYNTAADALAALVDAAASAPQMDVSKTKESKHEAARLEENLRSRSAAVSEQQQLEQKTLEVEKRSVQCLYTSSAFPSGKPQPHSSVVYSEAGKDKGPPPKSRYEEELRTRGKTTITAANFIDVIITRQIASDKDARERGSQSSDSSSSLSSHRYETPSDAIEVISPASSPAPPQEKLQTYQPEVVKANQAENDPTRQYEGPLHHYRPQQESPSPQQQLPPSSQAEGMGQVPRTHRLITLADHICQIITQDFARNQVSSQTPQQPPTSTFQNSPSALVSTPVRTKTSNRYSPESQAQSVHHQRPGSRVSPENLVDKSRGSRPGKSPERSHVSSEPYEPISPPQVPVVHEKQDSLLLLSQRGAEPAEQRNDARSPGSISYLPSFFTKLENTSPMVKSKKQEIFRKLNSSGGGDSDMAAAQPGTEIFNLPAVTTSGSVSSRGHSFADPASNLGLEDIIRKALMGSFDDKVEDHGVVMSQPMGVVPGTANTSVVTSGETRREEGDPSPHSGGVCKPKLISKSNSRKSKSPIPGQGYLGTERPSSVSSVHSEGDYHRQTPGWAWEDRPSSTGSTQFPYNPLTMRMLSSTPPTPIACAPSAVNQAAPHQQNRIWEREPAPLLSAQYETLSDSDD

The first experiment deals with T1, Histone deacetylase 2 (Homo sapiens, UniProt Q92769). Nature of the experiment: Inhibition of full-length recombinant human C-terminal GST tagged HDAC2 expressed in Sf9 insect cells using aminoluciferin peptide substrate at 100 nM preincubated for 3 hrs followed by substrate addition and measured after 30 mins by HDAC-Glo I/II chemiluminescence assay. The settings on record: time 3.5 hrs.
T1 sequence (Q92769 whole entry): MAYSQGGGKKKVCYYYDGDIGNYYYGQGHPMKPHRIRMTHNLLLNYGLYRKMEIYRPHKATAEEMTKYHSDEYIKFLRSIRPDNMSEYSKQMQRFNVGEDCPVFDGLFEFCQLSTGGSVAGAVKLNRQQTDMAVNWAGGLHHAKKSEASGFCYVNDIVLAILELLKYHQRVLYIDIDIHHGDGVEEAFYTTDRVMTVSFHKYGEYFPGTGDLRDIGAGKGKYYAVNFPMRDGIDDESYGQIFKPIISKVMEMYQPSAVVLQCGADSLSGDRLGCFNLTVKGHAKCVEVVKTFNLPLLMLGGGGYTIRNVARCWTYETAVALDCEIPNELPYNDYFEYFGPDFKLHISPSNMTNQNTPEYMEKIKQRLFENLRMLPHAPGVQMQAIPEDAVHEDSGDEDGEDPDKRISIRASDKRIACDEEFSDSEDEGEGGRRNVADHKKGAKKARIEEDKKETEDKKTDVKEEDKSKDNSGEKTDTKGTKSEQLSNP
For the molecule `Nc1ccc(-c2cccs2)cc1NC(=O)c1ccc(-c2cn(C[S+]([O-])c3ccccc3)nn2)cc1` (stereo unspecified), the inhibition was determined as 87%.

Take `Nc1ccc(-c2cccs2)cc1NC(=O)c1ccc(-c2cn(CS(=O)(=O)c3ccccc3)nn2)cc1`: the inhibition stood at 77%.

Turning to `Nc1ccc(-c2cccs2)cc1NC(=O)c1ccc(-c2cn(CCc3ccccn3)nn2)cc1`, the inhibition worked out at 81%.

A further experiment addresses Histone deacetylase 1 (Homo sapiens, UniProt Q13547). Nature of the experiment: Inhibition of full-length recombinant human C-terminal GST tagged HDAC1 expressed in Sf9 insect cells using aminoluciferin peptide substrate preincubated for 3 hrs followed by substrate addition and measured after 30 mins by HDAC-Glo I/II chemiluminescence assay.
Conditions: not given
On to `Nc1ccc(-c2cccs2)cc1NC(=O)c1ccc(-c2cn(C[S+]([O-])c3ccccc3)nn2)cc1` (stereo unspecified), for which the IC50 stood at 8.2 nM.

`Nc1ccc(-c2cccs2)cc1NC(=O)c1ccc(-c2cn(CS(=O)(=O)c3ccccc3)nn2)cc1`: the IC50 came out at 12 nM.

As for `Nc1ccc(-c2cccs2)cc1NC(=O)c1ccc(-c2cn(CCc3ccccn3)nn2)cc1`, the IC50 was 6.5 nM.

The target in a further experiment is T1, Histone deacetylase 2. Nature of the experiment: Inhibition of full-length recombinant human C-terminal GST tagged HDAC2 expressed in Sf9 insect cells using aminoluciferin peptide substrate preincubated for 3 hrs followed by substrate addition and measured after 30 mins by HDAC-Glo I/II chemiluminescence assay. In kind it is cell-based.
Conditions: not given
For `Nc1ccc(-c2cccs2)cc1NC(=O)c1ccc(-c2cn(C[S+]([O-])c3ccccc3)nn2)cc1` (stereo unspecified), the concentration for half-maximal inhibition (IC50) is 19 nM.

In the case of `Nc1ccc(-c2cccs2)cc1NC(=O)c1ccc(-c2cn(CS(=O)(=O)c3ccccc3)nn2)cc1`, the IC50 is 68 nM.

`Nc1ccc(-c2cccs2)cc1NC(=O)c1ccc(-c2cn(CCc3ccccn3)nn2)cc1`: the IC50 amounted to 17 nM.

A further experiment has as its target Histone deacetylase 3/NCoR1 (Homo sapiens, UniProt O15379). Nature of the experiment: Inhibition of recombinant human HDAC3/human GST-tagged NCOR1 (397 to 503 residues) using K(Ac)382 peptide substrate preincubated for 3 hrs followed by substrate addition and measured after 30 mins by HDAC-Glo I/II chemiluminescence assay. Format: protein-complex assay.
Conditions: not given
On to `Nc1ccc(-c2cccs2)cc1NC(=O)c1ccc(-c2cn(C[S+]([O-])c3ccccc3)nn2)cc1` (stereo unspecified), for which the IC50 is greater than 10000 nM.

In the case of `Nc1ccc(-c2cccs2)cc1NC(=O)c1ccc(-c2cn(CS(=O)(=O)c3ccccc3)nn2)cc1`, the IC50 is greater than 10000 nM.

For the molecule `Nc1ccc(-c2cccs2)cc1NC(=O)c1ccc(-c2cn(CCc3ccccn3)nn2)cc1`, the IC50 is greater than 10000 nM.

The target in the next experiment is T2, Histone deacetylase 8 (Homo sapiens, UniProt Q9BY41).
T2 sequence (Q9BY41 whole entry): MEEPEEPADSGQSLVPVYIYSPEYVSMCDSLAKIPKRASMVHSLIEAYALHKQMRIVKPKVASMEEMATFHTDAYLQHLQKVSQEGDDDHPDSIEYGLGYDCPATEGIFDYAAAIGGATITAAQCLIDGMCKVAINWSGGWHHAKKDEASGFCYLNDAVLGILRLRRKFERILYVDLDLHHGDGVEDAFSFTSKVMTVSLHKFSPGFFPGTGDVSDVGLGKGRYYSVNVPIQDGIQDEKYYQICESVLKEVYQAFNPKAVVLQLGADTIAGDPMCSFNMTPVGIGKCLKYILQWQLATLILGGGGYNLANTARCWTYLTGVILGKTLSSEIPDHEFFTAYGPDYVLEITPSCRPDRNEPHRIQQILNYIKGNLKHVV
Description: Inhibition of full-length recombinant human C-terminal His-tagged HDAC8 expressed in Sf9 insect cells using aminoluciferin peptide substrate preincubated for 3 hrs followed by substrate addition and measured after 30 mins by HDAC-Glo I/II chemiluminescence assay.
Conditions: not given
For the molecule `Nc1ccc(-c2cccs2)cc1NC(=O)c1ccc(-c2cn(C[S+]([O-])c3ccccc3)nn2)cc1` (stereo unspecified), the IC50 came to 4450 nM.

Take `Nc1ccc(-c2cccs2)cc1NC(=O)c1ccc(-c2cn(CS(=O)(=O)c3ccccc3)nn2)cc1`: the IC50 was greater than 10000 nM.

As for `Nc1ccc(-c2cccs2)cc1NC(=O)c1ccc(-c2cn(CCc3ccccn3)nn2)cc1`, the half-inhibitory concentration (IC50) is greater than 10000 nM.

The target of a further experiment is T3, Histone deacetylase 7 (Homo sapiens) (UniProt Q8WUI4).
T3 sequence (whole entry): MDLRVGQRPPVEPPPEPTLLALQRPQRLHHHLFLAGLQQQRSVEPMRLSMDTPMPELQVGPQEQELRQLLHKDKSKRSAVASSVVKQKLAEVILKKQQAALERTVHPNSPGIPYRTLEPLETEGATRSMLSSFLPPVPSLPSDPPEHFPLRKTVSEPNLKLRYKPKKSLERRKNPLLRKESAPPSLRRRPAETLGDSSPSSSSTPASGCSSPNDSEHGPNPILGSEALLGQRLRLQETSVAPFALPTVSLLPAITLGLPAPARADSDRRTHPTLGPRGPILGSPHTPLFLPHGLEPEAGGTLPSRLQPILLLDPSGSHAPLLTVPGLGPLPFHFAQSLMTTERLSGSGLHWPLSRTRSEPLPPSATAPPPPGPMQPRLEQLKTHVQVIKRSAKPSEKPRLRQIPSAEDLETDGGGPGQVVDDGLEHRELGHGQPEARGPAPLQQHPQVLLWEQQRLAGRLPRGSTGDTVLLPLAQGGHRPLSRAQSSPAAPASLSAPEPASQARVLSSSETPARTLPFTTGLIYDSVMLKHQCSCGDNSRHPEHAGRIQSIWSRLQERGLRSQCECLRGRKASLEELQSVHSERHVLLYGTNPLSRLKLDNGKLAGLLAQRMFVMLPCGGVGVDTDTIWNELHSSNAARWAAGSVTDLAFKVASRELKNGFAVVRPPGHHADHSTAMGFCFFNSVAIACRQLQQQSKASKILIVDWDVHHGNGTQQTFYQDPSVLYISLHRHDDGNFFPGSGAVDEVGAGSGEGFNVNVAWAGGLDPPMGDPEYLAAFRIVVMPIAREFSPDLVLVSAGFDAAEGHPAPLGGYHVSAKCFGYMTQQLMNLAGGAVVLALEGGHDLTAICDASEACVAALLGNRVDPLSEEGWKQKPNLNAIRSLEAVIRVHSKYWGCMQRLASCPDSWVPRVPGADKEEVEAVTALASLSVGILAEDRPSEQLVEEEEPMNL
Description: Inhibition of recombinant human HDAC7 using fluorogenic substrate preincubated for 3 hrs followed by substrate addition and measured after 30 mins by fluorescence analysis. To be noted: time 3.5 hrs.
For `Nc1ccc(-c2cccs2)cc1NC(=O)c1ccc(-c2cn(C[S+]([O-])c3ccccc3)nn2)cc1` (stereo unspecified), the inhibition entry was “inactive”.

On to `Nc1ccc(-c2cccs2)cc1NC(=O)c1ccc(-c2cn(CS(=O)(=O)c3ccccc3)nn2)cc1`, for which the inhibition result is “inactive”.

As for `Nc1ccc(-c2cccs2)cc1NC(=O)c1ccc(-c2cn(CCc3ccccn3)nn2)cc1`, the inhibition result is “inactive”.

Another experiment concerns the target Histone deacetylase 9 (Homo sapiens) (UniProt Q9UKV0). Description: Inhibition of recombinant human HDAC9 using fluorogenic substrate preincubated for 3 hrs followed by substrate addition and measured after 30 mins by fluorescence analysis. To be noted: time 3.5 hrs.
As to `Nc1ccc(-c2cccs2)cc1NC(=O)c1ccc(-c2cn(C[S+]([O-])c3ccccc3)nn2)cc1` (stereo unspecified), the inhibition entry was “inactive”.

Consider `Nc1ccc(-c2cccs2)cc1NC(=O)c1ccc(-c2cn(CS(=O)(=O)c3ccccc3)nn2)cc1`, for which the inhibition entry is “inactive”.

Turning to `Nc1ccc(-c2cccs2)cc1NC(=O)c1ccc(-c2cn(CCc3ccccn3)nn2)cc1`, the inhibition result was “inactive”.

For a further experiment, the target named is T1, Histone deacetylase 2. Nature of the experiment: biochemical. In kind it is cell-based, Sf9.
Conditions: not given
The molecule `Nc1ccc(-c2cccs2)cc1NC(=O)c1ccc(-c2cn(C[S+]([O-])c3ccccc3)nn2)cc1` (stereo unspecified) yielded a Ki of 22 nM.

The molecule `Nc1ccc(-c2cccs2)cc1NC(=O)c1ccc(-c2cn(CS(=O)(=O)c3ccccc3)nn2)cc1` showed a Ki of 6.2 nM.

As for `Nc1ccc(-c2cccs2)cc1NC(=O)c1ccc(-c2cn(CCc3ccccn3)nn2)cc1`, the Ki was determined as 9.8 nM.

The subject of the next experiment is MCF7. Nature of the experiment: cells. In kind it is functional. To be noted: Homo sapiens, time 48 hrs.
Description: Anticancer activity against human MCF7 cells overexpressing HDAC1 and HDAC2 assessed as inhibition of cell growth incubated for 48 hrs by sulforhodamine B assay
As to `Nc1ccc(-c2cccs2)cc1NC(=O)c1ccc(-c2cn(C[S+]([O-])c3ccccc3)nn2)cc1` (stereo unspecified), the GI50 stood at 1860 nM.

The molecule `Nc1ccc(-c2cccs2)cc1NC(=O)c1ccc(-c2cn(CS(=O)(=O)c3ccccc3)nn2)cc1` gave a GI50 of 43 nM.

`Nc1ccc(-c2cccs2)cc1NC(=O)c1ccc(-c2cn(CCc3ccccn3)nn2)cc1` gave a GI50 of 52500 nM.

For a further experiment, the system named is MCF7. Nature of the experiment: Upregulation of GADD45A gene expression in human MCF7 cells at 2 uM incubated for 24 hrs by RT-qPCR analysis. In kind it is functional, cell-based.
Conditions: not given
Turning to `Nc1ccc(-c2cccs2)cc1NC(=O)c1ccc(-c2cn(C[S+]([O-])c3ccccc3)nn2)cc1` (stereo unspecified), the result was Active.

As to `Nc1ccc(-c2cccs2)cc1NC(=O)c1ccc(-c2cn(CS(=O)(=O)c3ccccc3)nn2)cc1`, the result was Active.

For the molecule `Nc1ccc(-c2cccs2)cc1NC(=O)c1ccc(-c2cn(CCc3ccccn3)nn2)cc1`, the result was Active.

The next experiment concerns MCF7. Description: Upregulation of TES gene expression in human MCF7 cells at 2 uM incubated for 24 hrs by RT-qPCR analysis.
Conditions: not given
Format: functional, cell-based.
In the case of `Nc1ccc(-c2cccs2)cc1NC(=O)c1ccc(-c2cn(C[S+]([O-])c3ccccc3)nn2)cc1` (stereo unspecified), the outcome was Active.

`Nc1ccc(-c2cccs2)cc1NC(=O)c1ccc(-c2cn(CS(=O)(=O)c3ccccc3)nn2)cc1`: the outcome was Active.

With `Nc1ccc(-c2cccs2)cc1NC(=O)c1ccc(-c2cn(CCc3ccccn3)nn2)cc1`, the result was Active.

The subject of a further experiment is MCF7. Description: Upregulation of ERRF1 gene expression in human MCF7 cells at 2 uM incubated for 24 hrs by RT-qPCR analysis. In kind it is functional, cell-based.
Conditions: not given
With `Nc1ccc(-c2cccs2)cc1NC(=O)c1ccc(-c2cn(C[S+]([O-])c3ccccc3)nn2)cc1` (stereo unspecified), the outcome was Active.

For `Nc1ccc(-c2cccs2)cc1NC(=O)c1ccc(-c2cn(CS(=O)(=O)c3ccccc3)nn2)cc1`, the outcome was Active.

Consider `Nc1ccc(-c2cccs2)cc1NC(=O)c1ccc(-c2cn(CCc3ccccn3)nn2)cc1`, for which the result was Active.

The test system of a further experiment is MCF7. Description: Downregulation of E2F1 gene expression in human MCF7 cells at 2 uM incubated for 24 hrs by microarray analysis. In kind it is functional, cell-based.
Conditions: not given
With `Nc1ccc(-c2cccs2)cc1NC(=O)c1ccc(-c2cn(C[S+]([O-])c3ccccc3)nn2)cc1` (stereo unspecified), the result was Active.

For the molecule `Nc1ccc(-c2cccs2)cc1NC(=O)c1ccc(-c2cn(CS(=O)(=O)c3ccccc3)nn2)cc1`, the outcome was Active.

As for `Nc1ccc(-c2cccs2)cc1NC(=O)c1ccc(-c2cn(CCc3ccccn3)nn2)cc1`, the outcome was Active.

In a further experiment the test system is MCF7. Nature of the experiment: Downregulation of E2F7 gene expression in human MCF7 cells at 2 uM incubated for 24 hrs by microarray analysis. Format: functional, cell-based.
Conditions: not given
Regarding `Nc1ccc(-c2cccs2)cc1NC(=O)c1ccc(-c2cn(C[S+]([O-])c3ccccc3)nn2)cc1` (stereo unspecified), the outcome was Active.

On to `Nc1ccc(-c2cccs2)cc1NC(=O)c1ccc(-c2cn(CS(=O)(=O)c3ccccc3)nn2)cc1`, for which the outcome was Active.

Regarding `Nc1ccc(-c2cccs2)cc1NC(=O)c1ccc(-c2cn(CCc3ccccn3)nn2)cc1`, the outcome was Active.

A further experiment relates to MCF7. Description: Downregulation of CCNE2 gene expression in human MCF7 cells at 2 uM incubated for 24 hrs by microarray analysis. In kind it is functional, cell-based.
Conditions: not given
For `Nc1ccc(-c2cccs2)cc1NC(=O)c1ccc(-c2cn(C[S+]([O-])c3ccccc3)nn2)cc1` (stereo unspecified), the result was Active.

For `Nc1ccc(-c2cccs2)cc1NC(=O)c1ccc(-c2cn(CS(=O)(=O)c3ccccc3)nn2)cc1`, the outcome was Active.

Take `Nc1ccc(-c2cccs2)cc1NC(=O)c1ccc(-c2cn(CCc3ccccn3)nn2)cc1`: the outcome was Active.

The target in another experiment is T1, Histone deacetylase 2.
Assay: not given
To be noted: Sf9, dose 30-100 nM, time 3.5 hrs.
For the molecule `Nc1ccc(-c2cccs2)cc1NC(=O)c1ccc(-c2cn(C[S+]([O-])c3ccccc3)nn2)cc1` (stereo unspecified), the inhibition entry was “Dose-Dependent Effect”.

For `Nc1ccc(-c2cccs2)cc1NC(=O)c1ccc(-c2cn(CS(=O)(=O)c3ccccc3)nn2)cc1`, the inhibition result was “Dose-Dependent Effect”.

For `Nc1ccc(-c2cccs2)cc1NC(=O)c1ccc(-c2cn(CCc3ccccn3)nn2)cc1`, the inhibition entry was “Dose-Dependent Effect”.

The target in the next experiment is Histone deacetylase (Homo sapiens) (UniProt Q13547+O15379+Q9UBN7+Q92769+Q9UQL6+Q8WUI4+Q9BY41+Q96DB2+P56524+Q9UKV0+Q969S8).
Assay: not given
The settings on record: MCF7, dose 10.0 µM, time <= 48.0 hrs.
On to `Nc1ccc(-c2cccs2)cc1NC(=O)c1ccc(-c2cn(C[S+]([O-])c3ccccc3)nn2)cc1` (stereo unspecified), for which the TDI result was “Active”.

On to `Nc1ccc(-c2cccs2)cc1NC(=O)c1ccc(-c2cn(CS(=O)(=O)c3ccccc3)nn2)cc1`, for which the TDI result is “Active”.

Take `Nc1ccc(-c2cccs2)cc1NC(=O)c1ccc(-c2cn(CCc3ccccn3)nn2)cc1`: the TDI entry is “Active”.
